Measured values as given in the NIST ThermoML archive (doi:10.1016/j.fluid.2017.06.019).

Details: 368.46 K, Liquid, Coaxial cylinder method

CCC [propane]
Details | thermal conductivity [W/m/K]
4166 kPa | 0.1166
4167 kPa | 0.1142
4168 kPa | 0.112
4169 kPa | 0.1098
4170 kPa | 0.1079
4171 kPa | 0.1059
4172 kPa | 0.1041
4173 kPa | 0.1023
4174 kPa | 0.1007
4175 kPa | 0.09915
4176 kPa | 0.09767
4177 kPa | 0.09622
4178 kPa | 0.09487
4179 kPa | 0.09359
4180 kPa | 0.0923
4181 kPa | 0.09113
4182 kPa | 0.09007
4183 kPa | 0.08899
4184 kPa | 0.08793
4185 kPa | 0.08689
4186 kPa | 0.08599
4187 kPa | 0.08507
4188 kPa | 0.08424
4189 kPa | 0.08337
4190 kPa | 0.08257
4191 kPa | 0.08179
4192 kPa | 0.08112
4193 kPa | 0.08042
4194 kPa | 0.07971
4195 kPa | 0.0791
4196 kPa | 0.0785
4197 kPa | 0.07791
4198 kPa | 0.07733
4199 kPa | 0.07676
4200 kPa | 0.07619
4201 kPa | 0.07577
4202 kPa | 0.07536
4203 kPa | 0.07481
4204 kPa | 0.07441
4205 kPa | 0.07401
4206 kPa | 0.07348
4207 kPa | 0.07318
4208 kPa | 0.07282
4209 kPa | 0.07244
4210 kPa | 0.07206
4211 kPa | 0.07181
4212 kPa | 0.07151
4213 kPa | 0.07116
4214 kPa | 0.07087
4215 kPa | 0.07063
4216 kPa | 0.07039
4217 kPa | 0.0701
4218 kPa | 0.06986
4219 kPa | 0.06962
4220 kPa | 0.06939
4221 kPa | 0.0692
4222 kPa | 0.06897
4223 kPa | 0.06874
4224 kPa | 0.0686
4225 kPa | 0.0684
4226 kPa | 0.06824
4227 kPa | 0.06804
4228 kPa | 0.0679
4229 kPa | 0.06777
4230 kPa | 0.06761
4231 kPa | 0.06749
4232 kPa | 0.06733
4233 kPa | 0.06722
4234 kPa | 0.06709
4235 kPa | 0.06698
4236 kPa | 0.06684
4237 kPa | 0.06677
4238 kPa | 0.06652
4239 kPa | 0.06652
4240 kPa | 0.06647
4241 kPa | 0.06643
4242 kPa | 0.06641
4244 kPa | 0.06637
4246 kPa | 0.0663
4248 kPa | 0.06624
4250 kPa | 0.06619
4252 kPa | 0.06614
4254 kPa | 0.06611
4256 kPa | 0.06607
4258 kPa | 0.066
4260 kPa | 0.06598
4262 kPa | 0.06591
4264 kPa | 0.06587
4266 kPa | 0.06583
4268 kPa | 0.06578
4270 kPa | 0.06574
4272 kPa | 0.06572
4274 kPa | 0.06568
4276 kPa | 0.06564
4278 kPa | 0.06564
4280 kPa | 0.06559
4282 kPa | 0.06555
4284 kPa | 0.0655
4286 kPa | 0.0655
4288 kPa | 0.06543
4290 kPa | 0.06539
4292 kPa | 0.06535
4294 kPa | 0.06533
4296 kPa | 0.06529
4298 kPa | 0.06529
4300 kPa | 0.06527
4302 kPa | 0.06525
4304 kPa | 0.06521
4306 kPa | 0.06516
4308 kPa | 0.06514
4310 kPa | 0.06514
